Assay results from the supplement of paper PMC10307832.

Key:
Test in all cases: relative viability (nuclei count vs DMSO), 5 days (fraction); higher = more cells survive
NCI-H1792 = system: NCI-H1792
Procedure, shortened: (§1)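 Lung cancer cell lines in 1536-well plates were dosed by pin tool the day after seeding, either with one drug alone or with a fixed anchor-drug dose plus five library-drug doses (not always all listed) in √10 steps. After 5 days, cells were fixed and their nuclei stained in one step (final 0.05% Triton X-100, 1% formaldehyde, 1 ug/ml Hoechst), then counted on 4× images. Relative viability is the nuclei count in treated wells divided by that in vehicle wells. Values are medians of duplicate plates.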

LC-2-ad = system: LC-2-ad
Procedure, shortened: as §1

NCI-H2085 = system: NCI-H2085
Procedure, shortened: as §1

LXF-289 = system: LXF-289
Procedure, shortened: as §1

NCI-H460 = system: NCI-H460
Procedure, shortened: as §1

NCI-H1944 = system: NCI-H1944
Procedure, shortened: as §1

HCC-78 = system: HCC-78
Procedure, shortened: as §1

LU99A = system: LU99A
Procedure, shortened: as §1

NCI-H1755 = system: NCI-H1755
Procedure, shortened: as §1

COR-L 105 = system: COR-L 105
Procedure, shortened: as §1

NCI-H1975 = system: NCI-H1975
Procedure, shortened: as §1

HCC-366 = system: HCC-366
Procedure, shortened: as §1

EPLC-272H = system: EPLC-272H
Procedure, shortened: as §1

A-427 = system: A-427
Procedure, shortened: as §1

NCI-H1915 = system: NCI-H1915
Procedure, shortened: as §1

HOP-62 = system: HOP-62
Procedure, shortened: as §1

LCLC-97TM1 = system: LCLC-97TM1
Procedure, shortened: as §1

SK-LU-1 = system: SK-LU-1
Procedure, shortened: as §1

NCI-H2170 = system: NCI-H2170
Procedure, shortened: as §1

NCI-H1793 = system: NCI-H1793
Procedure, shortened: as §1

UMC-11 = system: UMC-11
Procedure, shortened: as §1

`NC(=O)Nc1cc(-c2cccc(F)c2)sc1C(=O)N[C@H]1CCCNC1` [AZD7762] + CC1(C)CCC(c2ccc(Cl)cc2)=C(CN2CCN(c3ccc(C(=O)NS(=O)(=O)c4ccc(N[C@H](CCN5CCOCC5)CSc5ccccc5)c(S(=O)(=O)C(F)(F)F)c4)cc3)CC2)C1 [Navitoclax] (partner 0.5 µM) showed a relative viability (NCI-H1792; first compound 0.01 µM) of 0.677, a relative viability (NCI-H1792; first compound 0.03162 µM) of 0.686 and a relative viability (NCI-H1792; first compound 0.1 µM) of 0.692. For the same molecule, the relative viability (NCI-H1792; first compound 0.3162 µM) was 0.565, the relative viability (NCI-H1792; first compound 1 µM) was 0.72 and the relative viability (LC-2-ad; first compound 0.01 µM) was 0.491. For the same molecule, the relative viability (LC-2-ad; first compound 0.03162 µM) was 0.476, the relative viability (LC-2-ad; first compound 0.1 µM) was 0.415 and the relative viability (LC-2-ad; first compound 0.3162 µM) was 0.414. The relative viability (LC-2-ad; first compound 1 µM) was 0.309, the relative viability (NCI-H2085; first compound 0.01 µM) was 1.27 and the relative viability (NCI-H2085; first compound 0.03162 µM) was 1.11. For the same molecule, the relative viability (NCI-H2085; first compound 0.1 µM) was 1.24, the relative viability (NCI-H2085; first compound 0.3162 µM) was 1.25 and the relative viability (NCI-H2085; first compound 1 µM) was 1.03. It also gave a relative viability (LXF-289; first compound 0.01 µM) of 0.943, a relative viability (LXF-289; first compound 0.03162 µM) of 0.962 and a relative viability (LXF-289; first compound 0.1 µM) of 0.949. It also gave a relative viability (LXF-289; first compound 0.3162 µM) of 1, a relative viability (LXF-289; first compound 1 µM) of 1.03 and a relative viability (NCI-H460; first compound 0.01 µM) of 1.25. The relative viability (NCI-H460; first compound 0.03162 µM) was 1.15, the relative viability (NCI-H460; first compound 0.1 µM) was 1.11 and the relative viability (NCI-H460; first compound 0.3162 µM) was 0.861. For the same molecule, the relative viability (NCI-H460; first compound 1 µM) was 0.0845, the relative viability (NCI-H1944; first compound 0.01 µM) was 1.06 and the relative viability (NCI-H1944; first compound 0.03162 µM) was 1.14. It also gave a relative viability (NCI-H1944; first compound 0.1 µM) of 1.1, a relative viability (NCI-H1944; first compound 0.3162 µM) of 1.12 and a relative viability (NCI-H1944; first compound 1 µM) of 0.816. It also gave a relative viability (HCC-78; first compound 0.01 µM) of 0.822, a relative viability (HCC-78; first compound 0.03162 µM) of 0.807 and a relative viability (HCC-78; first compound 0.1 µM) of 0.792. The relative viability (HCC-78; first compound 0.3162 µM) was 0.714, the relative viability (HCC-78; first compound 1 µM) was 0.401 and the relative viability (LU99A; first compound 0.01 µM) was 0.81. It also gave a relative viability (LU99A; first compound 0.03162 µM) of 0.869, a relative viability (LU99A; first compound 0.1 µM) of 0.718 and a relative viability (LU99A; first compound 0.3162 µM) of 0.665. For the same molecule, the relative viability (LU99A; first compound 1 µM) was 0.514, the relative viability (NCI-H1755; first compound 0.01 µM) was 1.03 and the relative viability (NCI-H1755; first compound 0.03162 µM) was 1.01. It also gave a relative viability (NCI-H1755; first compound 0.1 µM) of 1.08, a relative viability (NCI-H1755; first compound 0.3162 µM) of 1.08 and a relative viability (NCI-H1755; first compound 1 µM) of 0.622. For the same molecule, the relative viability (COR-L 105; first compound 0.01 µM) was 0.694, the relative viability (COR-L 105; first compound 0.03162 µM) was 0.768 and the relative viability (COR-L 105; first compound 0.1 µM) was 0.671. The relative viability (COR-L 105; first compound 0.3162 µM) was 0.527, the relative viability (COR-L 105; first compound 1 µM) was 0.463 and the relative viability (NCI-H1975; first compound 0.01 µM) was 1.03. For the same molecule, the relative viability (NCI-H1975; first compound 0.03162 µM) was 0.953, the relative viability (NCI-H1975; first compound 0.1 µM) was 1.11 and the relative viability (NCI-H1975; first compound 0.3162 µM) was 0.938. The relative viability (NCI-H1975; first compound 1 µM) was 0.676, the relative viability (HCC-366; first compound 0.01 µM) was 1.1 and the relative viability (HCC-366; first compound 0.03162 µM) was 1.09. It also gave a relative viability (HCC-366; first compound 0.1 µM) of 1.06, a relative viability (HCC-366; first compound 0.3162 µM) of 0.687 and a relative viability (HCC-366; first compound 1 µM) of 0.165. The relative viability (EPLC-272H; first compound 0.01 µM) was 1.17, the relative viability (EPLC-272H; first compound 0.03162 µM) was 1.18 and the relative viability (EPLC-272H; first compound 0.1 µM) was 1.15. It also gave a relative viability (EPLC-272H; first compound 0.3162 µM) of 1.37, a relative viability (EPLC-272H; first compound 1 µM) of 0.783 and a relative viability (A-427; first compound 0.01 µM) of 0.951. The relative viability (A-427; first compound 0.03162 µM) was 0.948, the relative viability (A-427; first compound 0.1 µM) was 1.08 and the relative viability (A-427; first compound 0.3162 µM) was 1.04. It also gave a relative viability (A-427; first compound 1 µM) of 0.36, a relative viability (NCI-H1915; first compound 0.01 µM) of 0.783 and a relative viability (NCI-H1915; first compound 0.03162 µM) of 0.78. For the same molecule, the relative viability (NCI-H1915; first compound 0.1 µM) was 0.784, the relative viability (NCI-H1915; first compound 0.3162 µM) was 0.806 and the relative viability (NCI-H1915; first compound 1 µM) was 0.672. The relative viability (HOP-62; first compound 0.01 µM) was 1.2, the relative viability (HOP-62; first compound 0.03162 µM) was 1.03 and the relative viability (HOP-62; first compound 0.1 µM) was 1.19. The relative viability (HOP-62; first compound 0.3162 µM) was 1.16, the relative viability (HOP-62; first compound 1 µM) was 0.969 and the relative viability (LCLC-97TM1; first compound 0.01 µM) was 0.343. It also gave a relative viability (LCLC-97TM1; first compound 0.03162 µM) of 0.517, a relative viability (LCLC-97TM1; first compound 0.1 µM) of 0.51 and a relative viability (LCLC-97TM1; first compound 0.3162 µM) of 0.457. The relative viability (LCLC-97TM1; first compound 1 µM) was 0.237, the relative viability (SK-LU-1; first compound 0.01 µM) was 0.895 and the relative viability (SK-LU-1; first compound 0.03162 µM) was 0.649. For the same molecule, the relative viability (SK-LU-1; first compound 0.1 µM) was 0.251, the relative viability (SK-LU-1; first compound 0.3162 µM) was 0.103 and the relative viability (SK-LU-1; first compound 1 µM) was 0.138. It also gave a relative viability (NCI-H2170; first compound 0.01 µM) of 0.62, a relative viability (NCI-H2170; first compound 0.03162 µM) of 0.702 and a relative viability (NCI-H2170; first compound 0.1 µM) of 0.577. For the same molecule, the relative viability (NCI-H2170; first compound 0.3162 µM) was 0.653, the relative viability (NCI-H2170; first compound 1 µM) was 0.584 and the relative viability (NCI-H1793; first compound 0.01 µM) was 0.437. It also gave a relative viability (NCI-H1793; first compound 0.03162 µM) of 0.645, a relative viability (NCI-H1793; first compound 0.1 µM) of 0.476 and a relative viability (NCI-H1793; first compound 0.3162 µM) of 0.368. It also gave a relative viability (NCI-H1793; first compound 1 µM) of 0.211, a relative viability (UMC-11; first compound 0.01 µM) of 0.312 and a relative viability (UMC-11; first compound 0.03162 µM) of 0.32. The relative viability (UMC-11; first compound 0.1 µM) was 0.272, the relative viability (UMC-11; first compound 0.3162 µM) was 0.307 and the relative viability (UMC-11; first compound 1 µM) was 0.21.
